Here are results for 15 molecules from ChEMBL document CHEMBL1201862, “PubChem BioAssay data set” (2004).

The structures appear in SMILES notation.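 Tested at 5 concentrations; 48 h exposure; 96-well plates; endpoints linearly interpolated, else capped at highest concentration. The concentration for 50% growth inhibition is given as GI50.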 Active and inactive are the calls of the source. No stated cut-off is given here; in the data, active = GI50 up to about 1.1 µM and inactive = higher.

Common to all, as to experiment: inhibition of tumour cell growth, NCI panel, 48 h
Experiment [1] concerns DMS-273.
Experiment [2] concerns HOP-18.
In experiment [3] the test system is XF498.
Experiment [4] relates to M19-MEL.
For experiment [5], the system named is SNB-78.
Experiment [6] has as its system DMS-114.
The test system of experiment [7] is DLD-1.
Experiment [8] deals with LXFL 529.
Experiment [9] relates to RXF 631.

`O=C(N/C(=C\c1ccc2c(c1)OCO2)c1nc2ccccc2[nH]1)c1ccccc1`: the GI50 in [1] was 28.8 µM (inactive); in [2], 43.6 µM (inactive); in experiment [3] it was 15.5 µM (inactive); in experiment [4], 3.03 µM (inactive); in [5], 39.4 µM (inactive); in experiment [6] it was 2.39 µM (inactive). Further, the GI50 was 30.8 µM (inactive) in experiment [7] and 20.4 µM (inactive) in experiment [8].

Take `CCOC(=O)/C=C(/CN1C(=O)c2ccccc2C1=O)c1ccccc1`: the GI50 was > 100 µM (inactive) in [1]; > 100 µM (inactive) in experiment [2]; > 100 µM (inactive) in experiment [3]; > 100 µM (inactive) in experiment [4]; 88.9 µM (inactive) in [5]; > 100 µM (inactive) in experiment [6]. The GI50 in experiment [7] and in [8] was > 100 µM (inactive) each time.

Consider `CCOC(=O)C1C(c2ccc(Br)cc2)N(Cc2ccccc2)C(c2ccc(Br)cc2)C(C(=O)OC)S1(=O)=O` (stereo not given), for which the GI50 was 74.1 µM (inactive) in experiment [1]; 21.9 µM (inactive) in experiment [2]; > 100 µM (inactive) in experiment [3]; 74.6 µM (inactive) in experiment [4]; > 100 µM (inactive) in [5]; 66.4 µM (inactive) in [6]. For the same molecule, the GI50 in [7] and in experiment [8] was > 100 µM (inactive) each time.

With `COc1c(OC(C)=O)c(OC(C)=O)cc2c1-c1ccc(OC)c(=O)cc1C(NC(C)=O)CC2` (stereo not given), the GI50 in [1] was 0.0172 µM (active); in experiment [9], 0.0676 µM (active); in [3] it was 0.0311 µM (active); in experiment [4], < 0.0167 µM (active); in experiment [5], < 0.01 µM (active); in experiment [6], < 0.0127 µM (active). The GI50 in [7] is 0.0186 µM (active); in experiment [8] it was < 0.01 µM (active).

`CC(C)N(C(=O)C12C3C4C1(I)C1C2C3(I)C41C(=O)N(C(C)C)C(C)C)C(C)C` (stereo not given): the GI50 in experiment [1] was > 100 µM (inactive); in experiment [2], > 100 µM (inactive); in [9], > 100 µM (inactive); in experiment [3], > 100 µM (inactive); in [4] it was > 47 µM (inactive); in experiment [7] it was > 56.5 µM (inactive). For the same molecule, the GI50 in [8] is > 67.6 µM (inactive).

For `O=c1[nH]cc(COCC(O)CO)c(=O)[nH]1` (stereo not given), the GI50 in [1], in [2], in [9], in [3], in experiment [4] and in experiment [5] was > 100 µM (inactive) each time. The GI50 in experiment [6], in experiment [7] and in [8] was > 100 µM (inactive) in each case.

Take `C=CCc1cc(OC)c(O)c(C(=O)/C=C/c2ccc(OC)c(OC)c2)c1`: the GI50 in experiment [1] was 23.4 µM (inactive); in [9], 25.4 µM (inactive); in [3], 14.1 µM (inactive); in [5] it was 28.8 µM (inactive); in experiment [6], 17.8 µM (inactive); in experiment [7], 18.4 µM (inactive). The GI50 in experiment [8] is 20.9 µM (inactive).

As to `Cc1c2ccnc(C(N)=O)c2c(C)c2c1[nH]c1ccccc12`, the GI50 was 2.39 µM (inactive) in experiment [1]; 9.48 µM (inactive) in [2]; 4.58 µM (inactive) in [9]; 8.24 µM (inactive) in experiment [3]; 7.46 µM (inactive) in experiment [4]; 14 µM (inactive) in [5]. Moreover, the GI50 was 8.91 µM (inactive) in experiment [6], 5.07 µM (inactive) in [7] and 5.69 µM (inactive) in experiment [8].

Regarding `O=C1NC(=O)C(=Cc2c3ccccc3cc3ccccc23)C(=O)N1`, the GI50 in experiment [1] is > 100 µM (inactive); in experiment [2], 83.8 µM (inactive); in experiment [9], > 100 µM (inactive); in experiment [3], > 100 µM (inactive); in experiment [4] it was > 100 µM (inactive); in experiment [8], 79.4 µM (inactive).

As for `COC(=O)[C@@H]1CSC(=S)N1C(=O)C[C@H]1CC=CC[C@H]1CC(=O)Sc1ccccc1`, the GI50 in experiment [1] is 21.7 µM (inactive); in experiment [2], 29.8 µM (inactive); in [3], 16.5 µM (inactive); in experiment [4] it was 23.4 µM (inactive); in experiment [5], 22.3 µM (inactive); in experiment [7] it was 17 µM (inactive). Further, the GI50 in experiment [8] is 15.3 µM (inactive).

Take `N#Cc1nc(Nc2ccc(Cl)cc2)sc1N`: the GI50 in experiment [1] is 13.2 µM (inactive); in [2], 29.4 µM (inactive); in experiment [3], 14.3 µM (inactive); in experiment [4], 12.4 µM (inactive); in experiment [5], 10.8 µM (inactive); in [6], 3.07 µM (inactive). Also, the figures for the GI50 in experiment [7] and in [8] were 17.9 µM (inactive) and 3.55 µM (inactive), respectively.

For the molecule `COc1ccccc1NC(=O)C1=C(C)NC(C)=C(C(=O)Nc2ccccc2OC)C1c1ccc([N+](=O)[O-])cc1`, the GI50 in [1] was 86.7 µM (inactive); in [2], > 100 µM (inactive); in [9], 56.8 µM (inactive); in experiment [3], 3.5 µM (inactive); in experiment [5], > 100 µM (inactive); in [6], 9.12 µM (inactive). Also, the values for the GI50 in [7] and in experiment [8] were 46.6 µM (inactive) and 48.2 µM (inactive), respectively.

As to `Clc1c(Cl)c2c(Cl)c(Cl)c1C[PH](c1ccccc1)(c1ccccc1)CC[PH](c1ccccc1)(c1ccccc1)Cc1c(Cl)c(Cl)c(c(Cl)c1Cl)C[PH](c1ccccc1)(c1ccccc1)CC[PH](c1ccccc1)(c1ccccc1)C2`, the GI50 is 2.42 µM (inactive) in experiment [1]; 8.17 µM (inactive) in [2]; 6.68 µM (inactive) in experiment [9]; 2.81 µM (inactive) in experiment [4]; 3.82 µM (inactive) in experiment [5]; 1.68 µM (inactive) in experiment [6]. Moreover, the values for the GI50 in experiment [7] and in experiment [8] were 2.37 µM (inactive) and 2.15 µM (inactive), respectively.

Consider `CN1CC(C(=O)C2C(=O)c3ccccc3C2=O)C(=O)C(=O)C(C(=O)C2C(=O)c3ccccc3C2=O)C1` (stereo not given), for which the GI50 in [1], in experiment [9], in [3], in experiment [6] and in experiment [7] was > 100 µM (inactive) each time.

Regarding `CCOC(=O)c1s/c(=N\Nc2nc3ccccc3cc2C2OCCO2)n(Cc2ccccc2)c1C`, the GI50 in experiment [1], in experiment [2], in experiment [9], in experiment [3], in [4] and in [5] was > 100 µM (inactive) each time. Also, the GI50 in experiment [6], in experiment [7] and in [8] was > 100 µM (inactive) throughout.
